Where two headings read alike, the source gives them in different places. Each block holds one compound with its values, some of them ahead of it.
Tests used:
[1] = Plasma pharmacokinetics of endoxifen after administration of the compositions; type: in vivo; details: for AUC(0-t): read-out: mean AUC24hr; for half-life: endoxifen released from a composition disclosed herein
[2] = (Z)-Endoxifen solubility in dissolution media (pH 6.8 buffer with and without Polysorbate 80); type: physicochemical
Description: This example describes development of a dissolution assay to measure dissolution of endoxifen formulations. […] Polysorbate 80 (PS80), a nonionic surfactant, was added in varying concentrations to improve solubility and mimic an intestinal environment. Surfactants, such as polysorbate 80, create micelles in the medium that mimic the bile acid aggregates in the small intestine. These micelles facilitate the diffusion and transport of product into the medium.

[3] = cited from earlier work

AUC(0-t) ([1]; human, plasma, Day 1 of initial (first) dose, composition comprising 1 mg to 4 mg of (Z)-endoxifen): 150 to 600 ng·h/mL | AUC(0-t) ([1]; human, plasma, Day 21, compositions comprising 1 mg to 4 mg of (Z)-endoxifen): 400 to 2500 ng·h/mL | AUC(0-inf) ([1]; human, plasma, dosing range of 1 mg to 4 mg of (Z)-endoxifen): 400 to 6000 ng·h/mL
Structure (SMILES): CC/C(=C(\c1ccc(O)cc1)c1ccc(OCCNC)cc1)c1ccccc1 [(Z)-endoxifen]

solubility as a function of pH [2]: decreases as pH becomes less acidic | day by which steady state plasma levels are achieved ([1]; daily administration of a composition): ≤ 7 days | half-life ([1]; human, plasma, read-out: mean half-life): 40 to 53 h | half-life ([1]; human, plasma, read-out: terminal elimination half-life): 30 to 60 h
Structure (SMILES): CC/C(=C(\c1ccc(O)cc1)c1ccc(OCCNC)cc1)c1ccccc1 [endoxifen, 4-hydroxy-N-desmethyl-tamoxifen]

Structure (SMILES): CC/C(=C(\c1ccccc1)c1ccc(OCCN(C)C)cc1)c1ccccc1 [tamoxifen, (Z)-2-[4-(1,2-diphenyl-1-butenyl)phenoxy]-N,N-dimethylethanamine]
Terminal elimination half-life ([3]; Jordan C. Steroids 2007): 120 to 170 h | peak concentration time ([3]; post-dose): approximately 5 hours | Reported therapeutic levels of plasma tamoxifen ([3]; subjects dosed with 20 mg of oral tamoxifen (Lyon et al. 2012)): ≥ 30 nM
